This is an account of results in article PMC8286840, “Identifying SARS-CoV-2 antiviral compounds by screening for small molecule inhibitors of Nsp3 papain-like protease” (Biochemical Journal, 2021).

Test [1] has as its target T1, SARS-CoV-2 PLpro (nsp3 1564–1878) (Severe acute respiratory syndrome coronavirus 2, UniProt P0DTD1). Briefly: biochemical. Also noted: FRET-quenched peptide (Pro3) cleavage by PLpro, 10 min pre-incubation, slope over 20 min, normalised to no-compound control. To be noted: high concentration screen, read-out: % of control remaining.
For test [2], the target named is T1, SARS-CoV-2 PLpro (nsp3 1564–1878). Briefly: biochemical. Details: FRET-quenched peptide (Pro3) cleavage by PLpro, 10 min pre-incubation, slope over 20 min, normalised to no-compound control. The conditions noted are these: low concentration screen, read-out: % of control remaining.

Counter-ions that a name gives are not always drawn. Like-named read-outs stand apart in the source and are kept apart here.

In the case of `C[C@@H](O)[C@H]1C(=O)N2C(C(=O)O)=C(SCCNC=N)C[C@H]12` [Imipenem], the remaining activity at 3.75 µM in test [1] (Well no.=1935) was 103%; in test [1] (Well no.=5494) it was 104%. Moreover, the values for the remaining activity at 1.25 µM in test [2] (Well no.=1935) and in test [2] (Well no.=5494) were 102% and 104%, respectively.

With `CN(C)C(=O)CCSC(SCCC(=O)O)c1cccc(/C=C/c2ccc3ccc(Cl)cc3n2)c1` (stereo not shown) [MK-571 (sodium salt)], in test [1] (Well no.=7859), the remaining activity at 3.75 µM is 91.2%. The remaining activity at 1.25 µM in test [2] (Well no.=7859) is 91.6%.

For `Cc1ccc(NC(=S)NNc2c([N+](=O)[O-])cc(C(F)(F)F)cc2[N+](=O)[O-])cc1Cl` [Kobe0065], the remaining activity at 3.75 µM in test [1] (Well no.=7436) is 106%. Further, the remaining activity at 1.25 µM in test [2] (Well no.=7436) came to 103%.

`Cc1ccc(C(=O)C(C)CN2CCCCC2)cc1` (stereo not shown) [Tolperisone (hydrochloride)]: in test [1] (Well no.=7498), the remaining activity at 3.75 µM was determined as 100%. Besides, in test [2] (Well no.=7498), the remaining activity at 1.25 µM worked out at 99%.

For `O=C(NC(Cc1cc(=O)[nH]c2ccccc12)C(=O)O)c1ccc(Cl)cc1` (stereo not shown) [Rebamipide], the remaining activity at 3.75 µM in test [1] (Well no.=2197) came out at 98.5%; in test [1] (Well no.=6992) it was 98.9%. Also, the remaining activity at 1.25 µM was 99.1% in test [2] (Well no.=2197) and 95.1% in test [2] (Well no.=6992).

`O=C(c1ccc(OCCN2CCCCC2)cc1)c1c(-c2ccc(O)cc2)sc2cc(O)ccc12` [Raloxifene]: the remaining activity at 3.75 µM in test [1] (Well no.=1662) stood at 108%. The remaining activity at 1.25 µM in test [2] (Well no.=1662) was found to be 107%.

As to `C[N+]1(C)CCO[C@@](O)(c2ccc(-c3ccc([C@@]4(O)C[N+](C)(C)CCO4)cc3)cc2)C1` [Hemicholinium-3], the remaining activity at 3.75 µM in test [1] (Well no.=474) stood at 95.2%. The remaining activity at 1.25 µM in test [2] (Well no.=474) came out at 97.1%.

For the molecule `NCCS` [Cysteamine hydrochloride], the remaining activity at 3.75 µM in test [1] (Well no.=884) worked out at 103%. In addition, the remaining activity at 1.25 µM in test [2] (Well no.=884) came to 105%.

`Nc1nc(F)nc2c1ncn2[C@@H]1O[C@H](CO)[C@@H](O)[C@@H]1O` [Fludarabine]: in test [1] (Well no.=7962), the remaining activity at 3.75 µM is 88.2%. The remaining activity at 1.25 µM in test [2] (Well no.=7962) was 89.2%.

For `C/C1=C/CCC(C)(O)/C=C\C(C(C)C)C(OC(=O)c2ccc(O)cc2)C1` (stereo not shown) [Feroline], the remaining activity at 3.75 µM in test [1] (Well no.=3493) came out at 99.5%. The remaining activity at 1.25 µM in test [2] (Well no.=3493) worked out at 101%.

As for `O=C(O)CP(=O)(O)O` [Phosphonoacetic acid], the remaining activity at 3.75 µM in test [1] (Well no.=1299) was found to be 103%. The remaining activity at 1.25 µM in test [2] (Well no.=1299) worked out at 101%.

Consider `C[N+]1(C)CCC(OC(=O)C(O)(c2ccccc2)C2CCCC2)C1` (stereo not shown) [Glycopyrrolate], for which, in test [1] (Well no.=7471), the remaining activity at 3.75 µM was 103%. In addition, the remaining activity at 1.25 µM in test [2] (Well no.=7471) turned out to be 102%.

With `O=C(Cc1ccc(-c2ccc(OCCN3CCOCC3)cc2)cn1)NCc1ccccc1` [KX2-391], the remaining activity at 3.75 µM in test [1] (Well no.=5350) is 94.3%. Further, the remaining activity at 1.25 µM in test [2] (Well no.=5350) was 94.7%.

Regarding `COc1ccccc1Oc1c(NS(=O)(=O)c2ccc(C(C)(C)C)cc2)nc(-c2ncccn2)nc1OCCO` [Bosentan], the remaining activity at 3.75 µM in test [1] (Well no.=2246) stood at 95%; in test [1] (Well no.=7575), 96.3%. Also, the remaining activity at 1.25 µM turned out to be 93.3% in test [2] (Well no.=2246) and 98.7% in test [2] (Well no.=7575).

Turning to `O=C(O)c1ccccc1O` [Sodium salicylate], the remaining activity at 3.75 µM in test [1] (Well no.=4971) was found to be 97.2%. Also, the remaining activity at 1.25 µM in test [2] (Well no.=4971) worked out at 98.6%.

For `CCCCCCOc1nsnc1C1=CCCN(C)C1` [Xanomeline (oxalate)], in test [1] (Well no.=8005), the remaining activity at 3.75 µM came out at 100%. Also, the remaining activity at 1.25 µM in test [2] (Well no.=8005) was 103%.

Turning to `C[C@H]1c2cccc(O)c2C(=O)C2=C(O)[C@]3(O)C(=O)C(C(N)=O)=C(O)[C@@H](N(C)C)[C@@H]3[C@@H](O)[C@@H]21` [Doxycycline hydrochloride], the remaining activity at 3.75 µM in test [1] (Well no.=396) came out at 108%. Moreover, in test [2] (Well no.=396), the remaining activity at 1.25 µM came out at 105%.

As to `O=C(O)/C=C/c1cnc[nH]1` [4-Imidazoleacrylic acid], the remaining activity at 3.75 µM in test [1] (Well no.=1428) stood at 98.1%. Further, the remaining activity at 1.25 µM in test [2] (Well no.=1428) was 95.1%.

With `C[C@H]1[C@H](C)CC[C@]2(C(=O)O)CC[C@]3(C)C(=CC[C@@H]4[C@@]5(C)CCC(=O)C(C)(C)[C@@H]5CC[C@]43C)[C@H]12` [Ursonic acid], the remaining activity at 3.75 µM in test [1] (Well no.=6448) was found to be 98.4%. Moreover, the remaining activity at 1.25 µM in test [2] (Well no.=6448) came to 98.3%.

For `CC[C@@]1(O)C(=O)OCc2c1cc1n(c2=O)Cc2cc3ccccc3nc2-1` [(S)-(+)-Camptothecin], the remaining activity at 3.75 µM in test [1] (Well no.=483) was determined as 90.7%. Besides, in test [2] (Well no.=483), the remaining activity at 1.25 µM was 100%.

On to `O=C(O)c1ccccn1` [PCL 016], for which the remaining activity at 3.75 µM in test [1] (Well no.=7107) came to 98.2%. Also, the remaining activity at 1.25 µM in test [2] (Well no.=7107) came out at 99.9%.

In the case of `CCN1CCC[C@H]1CNC(=O)c1c(OC)ccc(I)c1O` [S(-)-IBZM], in test [1] (Well no.=875), the remaining activity at 3.75 µM amounted to 99.1%. The remaining activity at 1.25 µM in test [2] (Well no.=875) came out at 98.1%.

For `Fc1ccc(-c2nc3n(c2-c2ccncc2)CCS3)cc1` [SKF-86002], the remaining activity at 3.75 µM in test [1] (Well no.=2652) is 97.9%. Moreover, in test [2] (Well no.=2652), the remaining activity at 1.25 µM is 96.2%.

As for `CC[C@H]1OC(=O)[C@@](C)(F)C(=O)[C@H](C)[C@@H](O[C@@H]2O[C@H](C)C[C@H](N(C)C)[C@H]2O)[C@](C)(OC)C[C@@H](C)C(=O)[C@H](C)[C@H]2N(CCCCn3cc(-c4cccc(N)c4)nn3)C(=O)O[C@]12C` [Solithromycin], the remaining activity at 3.75 µM in test [1] (Well no.=7990) worked out at 95.7%. In addition, the remaining activity at 1.25 µM in test [2] (Well no.=7990) is 97.5%.

For `Cn1c(=O)[nH]c(=O)c2[nH]cnc21` [3-Methylxanthine], the remaining activity at 3.75 µM in test [1] (Well no.=6777) worked out at 102%. In addition, in test [2] (Well no.=6777), the remaining activity at 1.25 µM came out at 106%.

On to `CNCC(O)c1ccc(O)cc1` (stereo not shown) [p-Synephrine], for which the remaining activity at 3.75 µM in test [1] (Well no.=7313) was determined as 102%. In addition, the remaining activity at 1.25 µM in test [2] (Well no.=7313) worked out at 98.5%.

With `COc1cc2c(CCNC(C)=O)c[nH]c2cc1O` [6-Hydroxymelatonin], the remaining activity at 3.75 µM in test [1] (Well no.=654) came out at 96.7%. Moreover, in test [2] (Well no.=654), the remaining activity at 1.25 µM amounted to 95.9%.

On to `O=C1CSC(c2cccc(Br)c2)N1c1cc(Cl)ccc1O` (stereo not shown) [CK-548], for which, in test [1] (Well no.=6054), the remaining activity at 3.75 µM was determined as 96.3%. For the same molecule, the remaining activity at 1.25 µM in test [2] (Well no.=6054) worked out at 97.5%.

With `C#CCC(Cc1cnc2nc(N)nc(N)c2n1)c1ccc(C(=O)N[C@@H](CCC(=O)O)C(=O)O)cc1` (stereo partly shown) [Pralatrexate], the remaining activity at 3.75 µM in test [1] (Well no.=7550) is 95.8%; in test [1] (Well no.=9172), 84.5%. The remaining activity at 1.25 µM came out at 97% in test [2] (Well no.=7550) and 83.9% in test [2] (Well no.=9172).

Regarding `CCn1cc(C(=O)O)c(=O)c2cc(F)c(N3CCNCC3)cc21` [Norfloxacin], the remaining activity at 3.75 µM in test [1] (Well no.=2043) is 105%. In addition, the remaining activity at 1.25 µM in test [2] (Well no.=2043) came to 109%.

Regarding `C[C@H]1CNCCc2ccc(Cl)cc21` [Lorcaserin (Hydrochloride)], the remaining activity at 3.75 µM in test [1] (Well no.=6954) was determined as 93.7%. Moreover, the remaining activity at 1.25 µM in test [2] (Well no.=6954) is 99.1%.
